# Data taken from US20190225650A1, “PEPTIDOMIMETIC MACROCYCLES AND USE THEREOF IN REGULATING HIF1ALPHA” (AILERON THERAPEUTICS, INC., priority 2013, published 2019).
# Bridge positions count the residues as written; N and C are the ends. Square brackets hold non-standard residues; d marks the D form. Peptide text beside a SMILES is read from it. R8 = C=CCCCCCC[C@@](C)(N)C(=O)O; S5 = C=CCCC[C@](C)(N)C(=O)O; Nle = CCCC[C@H](N)C(=O)O; Abu = CC[C@H](N)C(=O)O
# Key:
# [1] = target: T1, flag-tagged HIF1α (AA 786-826) / His6-tagged p300 (AA 323-423) complex (Homo sapiens, UniProt Q09472); assay: HIF1α p300 displacement assay (TR FRET, +CHAPS); format: binding; conditions: read-out: IC50 (nM) (HIF1α_p300 Displacement + CHAPS)
# T1 construct: His6-tagged p300 (AA 323-423); made in house; host or cells: E. coli (pETDuet vector)
# T1 sequence (Q09472 323-423, one chain of several): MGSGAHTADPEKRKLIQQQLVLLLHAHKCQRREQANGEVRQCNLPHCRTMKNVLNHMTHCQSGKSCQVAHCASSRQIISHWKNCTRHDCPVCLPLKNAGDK
# Outline: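 The co-expressed flag-HIF1α (786-826)/His6-p300 (323-423) complex, purified from E. coli with 0.1 mM ZnSO4, was used at 300 nM final with competitor peptides for 1 h at room temperature. Buffer was 150 mM NaCl, 20 mM HEPES pH 7.4, 7.5 mM CHAPS and 1 mM DTT. Anti-Flag-K (0.5 μM) and anti-His-D2 (4 nM) were then added for 2 h, and IC50s were fitted from the TR-FRET ratio.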
# HRE-bla ME-180 cells [2] = assay: Reporter gene assay (HRE-bla ME-180 HIF reporter, GeneBLAzer); format: cell-based, human; conditions: for EC50: 24 hour normoxia
# Outline: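 A FRET β-lactamase readout of HIF transcription was used. After compound treatment in 0.3% DMSO/media under normoxic conditions, 20 μl of 6× LiveBLAzer-FRET B/G (CCF4-AM) substrate was added. Plates sat 3 hr at room temperature in the dark and were read at 409 Ex/460Em and 409Ex/530Em on a Synergy 2. Inhibition was compared against DMSO vehicle controls, with chetomin as positive control.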
# HRE-bla ME-180 cells [3] = assay: Cell proliferation assay (viability, MTT, 1% FBS); format: cell-based, human
# Outline: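 ME-180 cells (2×10^4/well) in Opti-MEM with 1% FBS were pretreated 16 h under normoxia (21% O2), vehicle 0.5% DMSO final. Incubation then continued under normoxia or hypoxia (1% O2); viable cells quantified by MTT-type CellTiter 96 assay.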
IC50 [1] [nM],EC50 (HRE-bla ME-180 cells [2]) [µM],SMILES,18 h Avg % max inhibition at top conc (HIF Rptr-24 hrs normoxia) (μM) (HRE-bla ME-180 cells [2]),Viability 1% FBS AVG (MTT V3-24 hr Normoxia) (μM) (HRE-bla ME-180 cells [3])
200 to 400,> 30,"CCCC[C@H](NC(=O)[C@H](CC(C)C)NC(=O)[C@@H](NC(=O)[C@H](CCC(=O)O)NC(=O)[C@H](CCC(=O)O)NC(=O)[C@H](CC(=O)O)NC(=O)[C@@H](NC(=O)[C@H](CC(N)=O)NC(=O)[C@@H](NC(=O)[C@H](CCC(N)=O)NC(=O)[C@H](CC(=O)O)NC(=O)[C@]1(C)CCCC=CCCC[C@](C)(NC(=O)[C@H](CCC(=O)O)NC(=O)[C@H](CCC(=O)O)NC(=O)CNC(=O)[C@H](CCC(N)=O)NC(=O)[C@H](CC(C)C)NC(=O)[C@H](CC(C)C)NC(C)=O)C(=O)N[C@@H](CC(C)C)C(=O)N[C@@H](CCCNC(=N)N)C(=O)N[C@@H](C)C(=O)N1)C(C)C)[C@@H](C)CC)C(C)C)C(=O)N[C@@]1(C)CCCC=CCCC[C@@](C)(C(=O)N[C@@H](CCCC)C(=O)NCC(N)=O)NC(=O)[C@H]([C@@H](C)CC)NC(=O)[C@H](C(C)C)NC(=O)[C@H](CC(C)C)NC1=O [SP-339] (Ac-LLQGEE[S5]LRA[S5]DQVNIDEEVL[Nle][S5]LVI[S5][Nle]G-NH2; staple 7-11, 23-27)",+ (<10: +),++++ (≥30: ++++)
200 to 400,> 30,"CC[C@@H]1NC(=O)[C@H](CC(=O)O)NC(=O)[C@H](Cc2ccc(O)cc2)NC(=O)[C@@](C)(NC(=O)[C@@H](NC(=O)[C@H](CC(C)C)NC(=O)[C@H](CCC(N)=O)NC(=O)[C@@H]2CCCN2C(=O)[C@H](CC(C)C)NC(=O)[C@H](CCC(=O)O)NC(=O)[C@H](CCCCN)NC(=O)[C@@H](NC(=O)[C@H](CCCNC(=N)N)NC(=O)[C@H](CC(=O)O)NC(=O)[C@H](CC(C)C)NC(=O)CNC(=O)[C@H](CCSC)NC(=O)[C@H](CCC(=O)O)NC(=O)[C@]2(C)CCCC=CCCCCCC[C@@](C)(NC(=O)[C@H](CCC(=O)O)NC(=O)[C@H](CC(=O)O)NC(=O)[C@@H](NC(=O)[C@H](Cc3ccccc3)NC(C)=O)[C@@H](C)CC)C(=O)N[C@@H](C(C)C)C(=O)N[C@@H](CC(C)C)C(=O)N[C@@H](CCSC)C(=O)N[C@@H](CO)C(=O)N[C@@H](CC(C)C)C(=O)N[C@@H](C(C)C)C(=O)N2)[C@@H](C)CC)[C@@H](C)O)CCCC=CCCC[C@@](C)(C(=O)N[C@H](C(=O)N[C@@H](CC(N)=O)C(=O)N[C@@H](C)C(N)=O)C(C)C)NC1=O [SP-323] (Ac-FIDE[R8]VLMSLV[S5]EMGLDRIKELPQLT[S5]YD[Abu][S5]VNA-NH2; staple 5-12, 27-31)",+ (<10: +),++++ (≥30: ++++)
> 700,> 30,CCCC[C@H](NC(=O)[C@H](CCC(=O)O)NC(=O)[C@]1(C)CCCC=CCCCCCC[C@@](C)(NC(=O)[C@H](CCC(=O)O)NC(=O)[C@H](CC(=O)O)NC(=O)[C@@H](NC(=O)[C@H](CC(N)=O)NC(=O)[C@@H](NC(=O)[C@H](CCC(N)=O)NC(=O)[C@H](CC(=O)O)NC(=O)[C@H](CC(C)C)NC(=O)[C@H](C)NC(=O)[C@H](CCCNC(=N)N)NC(=O)[C@H](CC(C)C)NC(=O)[C@H](CC(C)C)NC(=O)[C@H](CCC(=O)O)NC(=O)[C@H](CCC(=O)O)NC(=O)CNC(=O)[C@H](CCC(N)=O)NC(=O)[C@H](CC(C)C)NC(=O)[C@H](CC(C)C)NC(C)=O)C(C)C)[C@@H](C)CC)C(=O)N[C@@H](C(C)C)C(=O)N[C@@H](CC(C)C)C(=O)N[C@@H](CCCC)C(=O)N[C@@H](CO)C(=O)N[C@@H](CC(C)C)C(=O)N[C@@H](C(C)C)C(=O)N1)C(N)=O [SP-336] (Ac-LLQGEELLRALDQVNIDE[R8]VL[Nle]SLV[S5]E[Nle]-NH2; staple 19-26),+ (<10: +),++++ (≥30: ++++)
400 to 700,5 to 15,CCCC[C@H](NC(=O)[C@H](CCC(=O)O)NC(=O)[C@@H](NC(=O)[C@@H](NC(=O)[C@H](CC(N)=O)NC(=O)[C@]1(C)CCCC=CCCC[C@](C)(NC(=O)[C@H](CCC(=O)O)NC(=O)[C@H](CC(=O)O)NC(=O)[C@@H](NC(=O)[C@H](Cc2ccccc2)NC(C)=O)[C@@H](C)CC)C(=O)N[C@@H](C(C)C)C(=O)N[C@@H](CC(C)C)C(=O)N[C@@H](CCCC)C(=O)N1)C(C)C)[C@@H](C)CC)C(=O)N[C@@H](C)C(=O)N[C@@H](CC(C)C)C(N)=O [SP-143] (Ac-FIDE[S5]VL[Nle][S5]NVIE[Nle]AL-NH2; staple 5-9),++++ (≥50: ++++),++ (≤5 but <15: ++)
400 to 700,15 to 30,CCCC[C@H](NC(=O)[C@H](CCC(=O)O)NC(=O)[C@@H](NC(=O)[C@@H](NC(=O)[C@H](CC(C)C)NC(=O)[C@]1(C)CCCC=CCCC[C@](C)(NC(=O)[C@H](CCC(=O)O)NC(=O)[C@H](CC(=O)O)NC(=O)[C@@H](NC(=O)[C@H](Cc2ccccc2)NC(C)=O)[C@@H](C)CC)C(=O)N[C@@H](CC(N)=O)C(=O)N[C@@H](CC(C)C)C(=O)N[C@@H](CCCC)C(=O)N1)C(C)C)[C@@H](C)CC)C(=O)N[C@@H](C)C(=O)N[C@@H](CC(C)C)C(N)=O [SP-141] (Ac-FIDE[S5]NL[Nle][S5]LVIE[Nle]AL-NH2; staple 5-9),++++ (≥50: ++++),++ (≤5 but <15: ++)
> 700,> 30,CC[C@H](C)[C@H](NC(=O)[C@H](CCCNC(=N)N)NC(=O)[C@H](CC(=O)O)NC(=O)[C@H](CC(C)C)NC(=O)[C@H](C)NC(=O)[C@H](CCSC)NC(=O)[C@]1(C)CCCC=CCCC[C@](C)(NC(=O)[C@H](CCSC)NC(=O)[C@H](CC(C)C)NC(=O)[C@@H](NC(=O)[C@H](C)NC(=O)[C@H](CCC(N)=O)NC(=O)[C@H](CC(N)=O)NC(=O)[C@@H](NC(=O)[C@H](Cc2ccccc2)NC(C)=O)[C@@H](C)CC)C(C)C)C(=O)N[C@@H](CC(C)C)C(=O)N[C@@H](C(C)C)C(=O)N[C@@H]([C@@H](C)CC)C(=O)N1)C(N)=O [SP-271] (Ac-FINQAVLM[S5]LVI[S5]MALDRI-NH2; staple 9-13),+++ (≤25 but <50: +++),++++ (≥30: ++++)
200 to 400,> 30,"CCCC[C@H](NC(=O)[C@H](CC(C)C)NC(=O)[C@@H](NC(=O)[C@H](CCC(=O)O)NC(=O)[C@H](CCC(=O)O)NC(=O)[C@H](CC(=O)O)NC(=O)[C@@H](NC(=O)[C@H](CC(N)=O)NC(=O)[C@@H](NC(=O)[C@H](CCC(N)=O)NC(=O)[C@H](CC(=O)O)NC(=O)[C@]1(C)CCCC=CCCCCCC[C@@](C)(NC(=O)[C@H](CCC(N)=O)NC(=O)[C@H](CC(C)C)NC(=O)[C@H](CC(C)C)NC(C)=O)C(=O)N[C@@H](CCC(=O)O)C(=O)N[C@@H](CCC(=O)O)C(=O)N[C@@H](CC(C)C)C(=O)N[C@@H](CC(C)C)C(=O)N[C@@H](CCCNC(=N)N)C(=O)N[C@@H](C)C(=O)N1)C(C)C)[C@@H](C)CC)C(C)C)C(=O)N[C@@]1(C)CCCC=CCCC[C@@](C)(C(=O)N[C@@H](CCCC)C(=O)NCC(N)=O)NC(=O)[C@H]([C@@H](C)CC)NC(=O)[C@H](C(C)C)NC(=O)[C@H](CC(C)C)NC1=O [SP-341] (Ac-LLQ[R8]EELLRA[S5]DQVNIDEEVL[Nle][S5]LVI[S5][Nle]G-NH2; staple 4-11, 23-27)",+ (<10: +),++++ (≥30: ++++)
